For data set [1], the system named is sheep red blood cells (sRBCs). Put plainly: Hemolytic activity. Type of data set: cell-based. The following applies: for Hemolytic Activity (%): red cells of sheep. On the procedure: Specifically, hemolytic activity was analyzed using sheep red blood cells (sRBCs). In addition, as comparative groups, Ib-AMP4 and melittin were used. Defibrinated sheep blood (MB cells) was centrifuged (4,000×g, 10 min, 4° C.), washed with PBS three times, and suspended in PBS, thereby preparing an sRBC solution (10% sRBC). 5% sRBC and each peptide were mixed to have a final concentration of 1.25 to 160 μg/mL, allowed to react at room temperature for 30 minutes, and centrifuged to collect a supernatant. The absorbance (A414) of hemoglobin eluted from the red blood cells in the collected supernatant was measured at 414 nm. 0.1% Triton X−100 was used as a positive control, PBS was used as a negative control, and hemolytic activity (% Hemolysis) was calculated based on the following equation: % Hemolysis=[(A414 in peptide solution−A414 in PBS)/(A414 in 0.1% Triton X−100−A414 in PBS)]×100.

For data set [2], the system named is Cutibacterium acnes KCTC 3314. Type of data set: cell-based. The following applies: KCTC 3314. How it is done: (§1) To examine the antimicrobial and antifungal activity of the six types of peptide derivatives prepared in Example 1, antimicrobial and antifungal activity was analyzed using three types of bacterial strains and two types of fungal strains.
(§2) Specifically, to analyze antimicrobial and antifungal activity, a minimal inhibitory concentration (MIC) was measured. The three types of bacterial strains included Escherichia coli KCCM 41290, Staphylococcus aureus KCTC 1621, and Cutibacterium acnes KCTC 3314, and the two types of fungal strains included Candida albicans KCTC 17712, and Aspergillus niger KCTC 6317. The culture of Escherichia coli and Staphylococcus aureus was performed in Luria-Bertani (LB) medium (BD Difco), and the culture of Cutibacterium acnes was performed in reinforced clostridial medium (RCM, BD Difco). The culture of Candida albicans and Aspergillus niger was performed in potato dextrose (PD) medium (BD Difco). The pre-cultured microorganisms or spores were diluted in a medium to 5×10^3 CFU/mL, and each of the six types of peptide derivatives prepared in Example 1 was added at a predetermined concentration. Afterward, a bacterial strain was cultured at 37° C., a fungal strain was cultured at 25° C. for 18 to 24 hours, and optical densities (OD600) were measured using a microplate reader. Fluorescence values (Ex560 and Em600), instead of optical densities, were measured after adding a resazurin reagent to the Aspergillus niger medium to have a concentration of 100 μM. As a control, Ib-AMP4 was used, and the analysis results were expressed as the average of three repeated experiments.

For data set [3], the system named is Candida albicans KCTC 17712. Type of data set: cell-based. How it is done: as §1, §2
Data set [4] deals with Staphylococcus aureus KCTC 1621. Type of data set: cell-based. On the procedure: as §1, §2
In data set [5] the test system is Escherichia coli KCCM 41290. It counts as cell-based. On the procedure: as §1, §2
For data set [6], the system named is Aspergillus niger KCTC 6317. It counts as cell-based. On the procedure: as §1, §2
The nature of data set [7]: Cytotoxicity, WST-1 cell viability. Type of data set: cell-based, murine. The following applies: mouse, L929 cells (murine fibroblast cell line). How it is done:
(§3) Specifically, cytotoxicity was evaluated using a skin cell line, L929 cells (murine fibroblast cell line). In addition, as comparative groups, Ib-AMP4 and the bee venom-derived AMP, melittin, known to be highly cytotoxic, were used. The L929 cells were cultured in RPMI 1640 medium (Gibco), which was supplemented with 10% FBS (Sigma), antibiotic-antimycotic cocktail, penicillin G (100 IU/mL), streptomycin (100 μg/mL), and amphotericin B (250 ng/ml; Gibco), at 37° C. in 5% CO2. The cells were seeded in a 96-well plate at 1×10^4 cell/well, incubated for 18 hours, treated with each peptide at 1.25 to 160 µg/mL, and then incubated for 24 hours. 10 μL of WST-1 reagent was added to 100 μL of the medium and allowed to react at 37° C. for 30 minutes, and then absorbance (A450) was measured at 450 nm using a microplate reader. Instead of the peptides, 0.1% Triton X-100 and PBS were used as positive and negative controls, respectively, and cell viability was calculated based on the following equation: % Cell viability=[(A450 in peptide solution−A450 in PBS)/(A450 in 0.1% Triton X−100-A450 in PBS)]×100. The analysis results were expressed as mean±S.D of three repeated experiments.

Data set [8] concerns L929 cells (murine fibroblast cell line). Put plainly: Cytotoxicity, WST-1 cell viability. Type of data set: cell-based. How it is done: as §3

Each structure is given as a SMILES string. Values after ≈ are worked out from the molar mass of the structure shown. Where two headings read alike, the source gives them in different places. Where a SMILES comes first, the peptide text is derived from it.

In the case of `N=C(N)NCCC[C@H](NC(=O)CNC(=O)[C@H](Cc1c[nH]c2ccccc12)NC(=O)[C@@H](N)CCC(=O)O)C(=O)N[C@@H](CCCNC(=N)N)C(=O)N[C@@H](CS)C(=O)N[C@@H](CS)C(=O)NCC(=O)N[C@@H](Cc1c[nH]c2ccccc12)C(=O)NCC(=O)N1CCC[C@H]1C(=O)NCC(=O)N[C@@H](CCCNC(=N)N)C(=O)N[C@@H](CCCNC(=N)N)C(=O)N[C@@H](Cc1ccc(O)cc1)C(=O)N[C@@H](CS)C(=O)N[C@@H](CCCNC(=N)N)C(=O)N[C@@H](CCCNC(=N)N)C(=O)N[C@@H](Cc1c[nH]c2ccccc12)C(=O)N[C@@H](CS)C(N)=O` [Ib-AMP4] (H-EWGRRCCGWGPGRRYCRRWC-NH2; N-terminus assumed), the “Hemolytic Activity (%)” value in data set [1] (1.25 μg/mL) turned out to be 4.09%; in data set [1] (2.5 μg/mL), 4.47%; in data set [1] (5 μg/mL), 7.42%; in data set [1] (10 μg/mL), 8.42%; in data set [1] (20 μg/mL) it was 10.15%; in data set [1] (40 μg/mL), 15.79%. Further, the “Hemolytic Activity (%)” value in data set [1] (80 μg/mL) was 16.61%. Moreover, the “hemolytic activity (in words)” value in data set [1] (sheep red blood cells) was “insignificant cytotoxic and hemolytic activity”. The MIC in data set [2] was above 100 µg/mL; in data set [3] (Candida albicans, PD medium, 25° C., 18 to 24 hours, OD600), 60 µg/mL (≈ 23.6 µM); in data set [4] (Staphylococcus aureus, LB medium, 37° C., 18 to 24 hours, OD600), above 100 µg/mL; in data set [5] (Escherichia coli, LB medium, 37° C., 18 to 24 hours, OD600) it was above 100 µg/mL; in data set [6] (Aspergillus niger, PD medium, 25° C., 18 to 24 hours, resazurin fluorescence) it was 80 µg/mL (≈ 31.5 µM). Moreover, the “antimicrobial activity (in words)” value in data set [4] (Staphylococcus aureus) and in data set [5] (Escherichia coli) was “insignificant antimicrobial activity” each time. Besides, the viability at 24 h, 1.25 µg/mL in data set [7] (L929 cells, peptide 1.25 μg/mL, 24 hours, read-out: Relative cell viability (%)) was found to be 95%. In addition, in data set [7] (L929 cells, peptide 2.5 μg/mL, 24 hours, read-out: Relative cell viability (%)), the viability at 24 h, 2.5 µg/mL came to 94.4%. Further, the viability at 24 h, 5 µg/mL in data set [7] (L929 cells, peptide 5.0 μg/mL, 24 hours, read-out: Relative cell viability (%)) turned out to be 95.1%. In data set [7] (L929 cells, peptide 10 μg/mL, 24 hours, read-out: Relative cell viability (%)), the viability at 24 h, 10 µg/mL worked out at 95.7%. In data set [7] (L929 cells, peptide 20 μg/mL, 24 hours, read-out: Relative cell viability (%)), the viability at 24 h, 20 µg/mL turned out to be 97.3%. The viability at 24 h, 40 µg/mL in data set [7] (L929 cells, peptide 40 μg/mL, 24 hours, read-out: Relative cell viability (%)) came out at 90.4%. Further, the viability at 24 h, 80 µg/mL in data set [7] (L929 cells, peptide 80 μg/mL, 24 hours, read-out: Relative cell viability (%)) worked out at 92.2%. In addition, in data set [7] (L929 cells, peptide 160 μg/mL, 24 hours, read-out: Relative cell viability (%)), the viability at 24 h, 160 µg/mL worked out at 89.2%. Moreover, the viability at 24 h, 160 g/mL in data set [7] (L929 cells, peptide 160 g/mL as printed, read-out: cell viability) is at least 90%. Besides, the “cytotoxic activity (in words)” value in data set [8] (L929 cells) is “insignificant cytotoxic and hemolytic activity”.

For the compound `N=C(N)NCCC[C@H](NC(=O)[C@H](CCCNC(=N)N)NC(=O)[C@H](Cc1c[nH]c2ccccc12)NC(=O)[C@H](Cc1ccc(O)cc1)NC(=O)[C@H](CCCNC(=N)N)NC(=O)[C@H](CCCNC(=N)N)NC(=O)[C@H](Cc1c[nH]c2ccccc12)NC(=O)[C@@H]1CCCN1C(=O)CN)C(N)=O` [VESCA3] (H-GPWRRYWRR-NH2), in data set [1], the “hemolytic activity (in words)” value was “insignificant cytotoxic and hemolytic activity”. Moreover, in data set [2], the minimum inhibitory concentration (MIC) was above 100 µg/mL. The same compound returned an MIC in data set [3] (KCTC 17712) of 20 µg/mL (≈ 15 µM). Also, in data set [4] (KCTC 1621), the MIC worked out at 5 µg/mL (≈ 3.75 µM). In addition, the MIC in data set [5] (KCCM 41290) amounted to 60 µg/mL (≈ 45.1 µM). This compound had an MIC in data set [6] (KCTC 6317) of 40 µg/mL (≈ 30 µM). Moreover, in data set [7], the viability at 24 h, 1.25 µg/mL stood at 96.7%; the viability at 24 h, 2.5 µg/mL came to 104%; the viability at 24 h, 5 µg/mL was 104%; the viability at 24 h, 10 µg/mL came to 97.1%. In data set [7], the viability at 24 h, 20 µg/mL was 99.7%; the viability at 24 h, 40 µg/mL was determined as 91.9%; the viability at 24 h, 80 µg/mL came to 91.6%; the viability at 24 h, 160 µg/mL was determined as 94.9%. Moreover, the viability at 24 h, 160 g/mL in data set [7] is at least 90%. The “cytotoxic activity (in words)” value in data set [8] is “insignificant cytotoxic and hemolytic activity”.

These data come from patent US20240368221A1, “IMPATIENS BALSAMINA-DERIVED ANTI-BACTERIAL PEPTIDE AND ANTI-BACTERIAL COMPOSITION CONTAINING SAME” (V&CO CO., LTD., priority 2021, published 2024).
